Laboratory results taken from PMC8410672 (Chemistry (Weinheim an der Bergstrasse, Germany), 2021).

Columns and labels:
[1] = test system: clinical isolates of methicillin-resistant S. aureus; assay: MIC against clinical isolates from cystic fibrosis patients; type: cell-based; conditions: n=20 methicillin-resistant clinical isolates; CAMHB
[2] = test system: P. aeruginosa (Schroeter) Migula (ATCC 27853); assay: P. aeruginosa-induced bacterial peritonitis model; type: in vivo, Balb/c mice; conditions: 15 mg/kg i.p. single dose, n=10, 7 days, p <0.001
[3] = test system: clinical isolates of P. aeruginosa; assay: MIC against clinical isolates from cystic fibrosis patients; type: cell-based; conditions: n=20 clinical isolates, CAMHB
Balb/c mice = assay: toxicity profile in mice, intraperitoneal; type: in vivo, mouse; conditions: Balb/c mice n=3, i.p.; very mild toxicity after 1 h, recovered after 24 h

Row | Compound | S. aureus MICrange [1] | survival hazard ratio [HR] [2] | P. aeruginosa MIC50 ([3]; 30% MDR) | P. aeruginosa MIC90 [3] | well tolerated intraperitoneal dose (MTD) (Balb/c mice)
1 | CN[C@H](CC(C)C)C(=O)N[C@H]1C(=O)N[C@@H](CC(N)=O)C(=O)N[C@H]2C(=O)N[C@H]3C(=O)N[C@H](C(=O)N[C@H](C(=O)O)c4cc(O)cc(O)c4-c4cc3ccc4O)[C@H](O)c3ccc(c(Cl)c3)Oc3cc2cc(c3O[C@@H]2O[C@H](CO)[C@@H](O)[C@H](O)[C@H]2O[C@H]2C[C@](C)(N)[C@H](O)[C@H](C)O2)Oc2ccc(cc2Cl)[C@H]1O [Vancomycin] | 0.5 to 1.4 µM |  |  |  | 
2 | Colistin |  | 0.040 | ≤ 0.2 µM | 0.4 µM | 15 mg/kg
